Data as given in BindingDB's records for doi:10.1016/j.bmc.2011.05.013 (University of Auckland, 2011).

Assay: Inhibition of recombinant perforin mediated lysis of human Jurkat cells pre-incubated for 30 mins with perforin followed by incubation with Jurkat cells at 37 degC for 4 hrs in presence of 0.1% BSA by [51Cr] release assay

Row | Compound | IC50 [µM]
1 | CCNC(=O)c1ccc(-c2c(C#N)c(N)n3c(nc4ccccc43)c2C#N)cc1 | 3.16
2 | CNC(=O)c1ccc(-c2c(C#N)c(N)n3c(nc4ccccc43)c2C#N)cc1 | 1.04
3 | Cc1cc2nc3c(C#N)c(-c4ccc(OCC(N)=O)cc4)c(C#N)c(N)n3c2cc1C | 3.53
4 | N#Cc1c(-c2ccc(OCC(N)=O)cc2)c(C#N)c2nc3ccccc3n2c1N | 5.19
5 | N#Cc1c(-c2ccc(OCCO)cc2)c(C#N)c2nc3ccccc3n2c1N | 2.87
6 | N#Cc1c(-c2ccc(C(=O)NCCCO)cc2)c(C#N)c2nc3ccccc3n2c1N | 4.18
7 | CN(C)C(=O)COc1ccc(-c2c(C#N)c(N)n3c(nc4ccccc43)c2C#N)cc1 | 6.89
8 | N#Cc1c(-c2ccc(C(N)=O)cc2)c(C#N)c2nc3ccccc3n2c1N | 3
9 | N#Cc1c(-c2ccc(OCC(N)=O)cc2)c(C#N)c2nc3c(Cl)cccc3n2c1N | 5.67
10 | Cc1ccc2c(nc3c(C#N)c(-c4ccc(OCC(N)=O)cc4)c(C#N)c(N)n32)c1C | 5.21
11 | N#Cc1c(-c2ccc(C(=O)NCCO)cc2)c(C#N)c2nc3ccccc3n2c1N | 3.08
12 | CCNC(=O)COc1ccc(-c2c(C#N)c(N)n3c(nc4ccccc43)c2C#N)cc1 | 7.44
13 | N#Cc1c(-c2ccc(C(=O)NCC(O)CO)cc2)c(C#N)c2nc3ccccc3n2c1N (configuration not stated) | 3.24
14 | CC(C)NC(=O)COc1ccc(-c2c(C#N)c(N)n3c(nc4ccccc43)c2C#N)cc1 | 13.2
15 | CNC(=O)COc1ccc(-c2c(C#N)c(N)n3c(nc4ccccc43)c2C#N)cc1 | 4.56
16 | CCCNC(=O)COc1ccc(-c2c(C#N)c(N)n3c(nc4ccccc43)c2C#N)cc1 | 13.9
17 | Cc1cc2nc(C(C#N)=Cc3ccc(OCC(N)=O)cc3)[nH]c2cc1C | 5.14
18 | N#Cc1c(-c2ccc(OCC(=O)NCCO)cc2)c(C#N)c2nc3ccccc3n2c1N | 8.25
19 | N#Cc1c(-c2ccc(C(=O)NCCN3CCOCC3)cc2)c(C#N)c2nc3ccccc3n2c1N | 10

Row | Compound | IC50 [µM]
20 | COc1cccc2c1nc1c(C#N)c(-c3ccc(OCC(N)=O)cc3)c(C#N)c(N)n12 | 7.49
21 | Cc1cccc2c1nc1c(C#N)c(-c3ccc(OCC(N)=O)cc3)c(C#N)c(N)n12 | 6.87
22 | N#CC(=Cc1ccc(OCC(N)=O)cc1)c1nc2cccc(Cl)c2[nH]1 | 6.72
23 | CNC(=O)CCc1ccc(-c2c(C#N)c(N)n3c(nc4ccccc43)c2C#N)cc1 | > 20
24 | CN(C)C(=O)CCc1ccc(-c2c(C#N)c(N)n3c(nc4ccccc43)c2C#N)cc1 | > 20
25 | CC(O)CNC(=O)COc1ccc(-c2c(C#N)c(N)n3c(nc4ccccc43)c2C#N)cc1 (configuration not stated) | > 20
26 | N#Cc1c(-c2ccc(OCC(=O)NCCCO)cc2)c(C#N)c2nc3ccccc3n2c1N | > 20
27 | N#Cc1c(-c2ccc(OCC(=O)NCC(O)CO)cc2)c(C#N)c2nc3ccccc3n2c1N (configuration not stated) | > 20
28 | CN(C)C(=O)c1ccc(-c2c(C#N)c(N)n3c(nc4ccccc43)c2C#N)cc1 | > 20
29 | CN(C)CCNC(=O)c1ccc(-c2c(C#N)c(N)n3c(nc4ccccc43)c2C#N)cc1 | > 20
30 | N#CC(=Cc1ccc(OCC(N)=O)cc1)c1nc2ccccc2[nH]1 | > 20
31 | COc1cccc2[nH]c(C(C#N)=Cc3ccc(OCC(N)=O)cc3)nc12 | > 20
32 | Cc1ccc2nc(C(C#N)=Cc3ccc(OCC(N)=O)cc3)[nH]c2c1C | > 20
33 | N#Cc1c(-c2ccc(OCC(=O)NCCc3ccncc3)cc2)c(C#N)c2nc3ccccc3n2c1N | 10
34 | N#Cc1c(-c2ccc(C(=O)NCCc3ccncc3)cc2)c(C#N)c2nc3ccccc3n2c1N | 10.5
35 | Cc1cccc2[nH]c(C(C#N)=Cc3ccc(OCC(N)=O)cc3)nc12 | > 20
36 | CC(O)CNC(=O)c1ccc(-c2c(C#N)c(N)n3c(nc4ccccc43)c2C#N)cc1 (configuration not stated) | 5.55
37 | N#Cc1c(-c2ccc(C(=O)NCCN3CCCCC3)cc2)c(C#N)c2nc3ccccc3n2c1N | > 20
